Test results from US20040176467A1, “Method of preventing or reducing the occurrence of symptoms of psychosis” (priority 2004, published 2004).

Columns and labels:
[1] = system: schizophrenia patients; conditions: cited from earlier work
[2] = system: locomotor sensitization to amphetamine; assay: locomotor sensitization to amphetamine; type: in vivo
[3] = system: rat locomotion; conditions: cited from earlier work; for effect on locomotion at higher doses: significant D2 receptor occupancy or activation; for effect on locomotion at low doses: devoid of significant D2 receptor occupancy; for effect on rat locomotion: D3 antagonists
[4] = system: D3 knockout and wild type mice; conditions: habituated animals; cited from earlier work
[5] = system: neurons in substantia nigra (SN), ventral tegmentum (VTA), and nucleus accumbens (NA); conditions: cited from earlier work
[6] = target: D3 dopamine receptor (D3/D2) (Homo sapiens, UniProt P35462); conditions: cited from earlier work
[7] = system: stereotyped behaviors induced by apomorphine and dizocilipine; conditions: preclinical models of antipsychotic drug efficacy; cited from earlier work
[8] = target: D2 receptors (Homo sapiens, UniProt P14416); assay: biochemical; conditions: read-out: occupancy for D2
[9] = system: behavioral sensitization; conditions: later challenge; cited from earlier work
[10] = system: D2 receptor; conditions: dose that inhibits sensitization; cited from earlier work

Chain of D3 dopamine receptor (D3/D2) (P35462 whole entry): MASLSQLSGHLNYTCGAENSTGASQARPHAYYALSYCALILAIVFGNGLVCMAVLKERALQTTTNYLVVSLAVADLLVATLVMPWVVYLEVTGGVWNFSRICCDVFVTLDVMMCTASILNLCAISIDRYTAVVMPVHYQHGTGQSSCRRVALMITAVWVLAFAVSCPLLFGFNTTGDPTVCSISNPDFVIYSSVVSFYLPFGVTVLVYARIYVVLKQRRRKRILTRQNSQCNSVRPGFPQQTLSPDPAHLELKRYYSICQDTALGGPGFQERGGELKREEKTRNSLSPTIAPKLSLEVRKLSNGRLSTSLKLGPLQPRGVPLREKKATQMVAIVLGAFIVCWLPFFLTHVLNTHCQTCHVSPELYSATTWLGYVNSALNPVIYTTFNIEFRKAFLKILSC
Chain of D2 receptors (P14416 whole entry): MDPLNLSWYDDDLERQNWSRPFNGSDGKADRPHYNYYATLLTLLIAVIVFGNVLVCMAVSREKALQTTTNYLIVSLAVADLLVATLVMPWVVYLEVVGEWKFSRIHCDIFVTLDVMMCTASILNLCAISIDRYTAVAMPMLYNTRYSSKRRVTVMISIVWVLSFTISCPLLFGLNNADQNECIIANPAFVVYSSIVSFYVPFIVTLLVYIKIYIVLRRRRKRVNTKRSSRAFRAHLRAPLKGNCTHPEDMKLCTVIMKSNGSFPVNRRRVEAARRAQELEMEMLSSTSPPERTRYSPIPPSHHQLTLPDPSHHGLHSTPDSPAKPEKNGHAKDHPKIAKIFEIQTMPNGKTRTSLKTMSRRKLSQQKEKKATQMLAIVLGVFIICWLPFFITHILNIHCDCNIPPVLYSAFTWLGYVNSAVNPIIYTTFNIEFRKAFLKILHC

SMILES: CCCN1CCCC(c2cccc(O)c2)C1 (single isomer, unassigned; (-)) [(−)-3PPP, (−)-3-(3-hydroxyphenyl)-N-n-propylpiperidine]
- effect on psychotic symptoms [1]: improved psychotic symptoms in schizophrenia patients for up to one week

SMILES: CCCN(CCC)C1CCc2ccc(O)cc2C1 (stereo not shown) [7-OH-DPAT, 7-hydroxy-N,N-di-n-propyl-2-aminotetralin]
- behavioral response to the D3 agonist after a sensitizing regimen of amphetamine ([2]; following a sensitizing regimen of amphetamine): decreased behavioral response
- effect on locomotion at higher doses [3]: stimulation of locomotion
- effect on locomotion at low doses [3]: inhibition of spontaneous locomotion
- effect on locomotion after micro-injection ([3]; micro-injection into rat nucleus accumbens, also systemic administration in mice): inhibition of locomotion
- difference in hypolocomotor behavioral response between D3 knockout and wild type mice [4]: Neither laboratory found a significant difference
- effect on neuronal firing rate [5]: inhibits neuronal firing rate

SMILES: CCCN[C@@H]1CCc2c(OC)cccc2[C@@H]1C [(+)-AJ 76]
- effect on rat locomotion [3]: stimulate rat locomotion

SMILES: CCCN(CCC)[C@@H]1CCc2c(OC)cccc2[C@@H]1C [(+)-UH 232]
- effect on rat locomotion [3]: stimulate rat locomotion
- effect on psychotic symptoms [1]: further worsened positive psychotic symptoms

SMILES: O=C(NCCCCN1CCN(c2cccc(Cl)c2Cl)CC1)c1ccc2c(c1)Cc1ccccc1-2 [NGB 2904]
- preference (selectivity) for D3/D2 [6]: 155 fold

SMILES: CCCN1CCO[C@@H]2c3cc(O)ccc3OC[C@H]21 [PD 128907]
- effect on locomotion at higher doses [3]: stimulation of locomotion
- effect on locomotion at low doses [3]: inhibition of spontaneous locomotion
- difference in hypolocomotor behavioral response between D3 knockout and wild type mice [4]: Neither laboratory found a significant difference
- effect on stereotyped behaviors induced by apomorphine and dizocilipine [7]: effectively inhibits

SMILES: N#Cc1ccc2c(c1)[C@H]1CN(CCCCNC(=O)c3ccc(-c4ccccc4)cc3)C[C@@H]1CO2 [S33084]
- preference (selectivity) for D3/D2 [6]: 100 fold

SMILES: CCCN(CCC)C1Cc2cc(OC)c(OC)cc2C1 [U99194A]
- effect on rat locomotion [3]: stimulate rat locomotion

SMILES: NCCc1ccc(O)c(O)c1 [dopamine]
- receptor occupancy at 0.75 µM [8]: 27%

SMILES: O=C(CCCN1CCC(O)(c2ccc(Cl)cc2)CC1)c1ccc(F)cc1 [haloperidol]
- sensitization after repetitive treatment [9]: results in sensitization to later challenge by cocaine, amphetamine, or the dopamine agonist apomorphine

SMILES: CCCCN1CCCC1CNC(=O)c1cc(C#N)c2ccccc2c1OC (stereo not shown) [nafadotride]
- effect on locomotor sensitization to amphetamine ([2]; dose devoid of appreciable D2 receptor occupancy): inhibition of locomotor sensitization to amphetamine
- preference (selectivity) for D3/D2 [6]: 10 fold
- effect on rat locomotion [3]: stimulate rat locomotion
- D2 receptor occupancy at the dose used [10]: devoid of appreciable D2 receptor occupancy

SMILES: CCN1CCCC1CNC(=O)c1cc(S(N)(=O)=O)ccc1OC (stereo not shown) [sulpiride]
- D2/D3 affinity ratio [6]: 2
- sensitization after repetitive treatment [9]: results in sensitization to cocaine
